Source: patent US9629921B2, “Smart pro-drugs of serine protease inhibitors” (Trustees of Tufts College, priority 2002, dated 2017)
“And” between values parts separate entries of the source, which are not always exact repeats. Identical values can stand only once. Like-named read-outs stand apart in the source and are kept apart here. One block for each molecule: values may come before it.

Tests used:
DPP IV = DPP IV (Homo sapiens, UniProt P27487); assay: In vitro DPP IV enzyme inhibition assay; inhibitors incubated at pH 2 or pH 8, then added to enzyme assay solution at pH 8.0; type: biochemical
Chain of DPP IV (P27487 whole entry, species assumed): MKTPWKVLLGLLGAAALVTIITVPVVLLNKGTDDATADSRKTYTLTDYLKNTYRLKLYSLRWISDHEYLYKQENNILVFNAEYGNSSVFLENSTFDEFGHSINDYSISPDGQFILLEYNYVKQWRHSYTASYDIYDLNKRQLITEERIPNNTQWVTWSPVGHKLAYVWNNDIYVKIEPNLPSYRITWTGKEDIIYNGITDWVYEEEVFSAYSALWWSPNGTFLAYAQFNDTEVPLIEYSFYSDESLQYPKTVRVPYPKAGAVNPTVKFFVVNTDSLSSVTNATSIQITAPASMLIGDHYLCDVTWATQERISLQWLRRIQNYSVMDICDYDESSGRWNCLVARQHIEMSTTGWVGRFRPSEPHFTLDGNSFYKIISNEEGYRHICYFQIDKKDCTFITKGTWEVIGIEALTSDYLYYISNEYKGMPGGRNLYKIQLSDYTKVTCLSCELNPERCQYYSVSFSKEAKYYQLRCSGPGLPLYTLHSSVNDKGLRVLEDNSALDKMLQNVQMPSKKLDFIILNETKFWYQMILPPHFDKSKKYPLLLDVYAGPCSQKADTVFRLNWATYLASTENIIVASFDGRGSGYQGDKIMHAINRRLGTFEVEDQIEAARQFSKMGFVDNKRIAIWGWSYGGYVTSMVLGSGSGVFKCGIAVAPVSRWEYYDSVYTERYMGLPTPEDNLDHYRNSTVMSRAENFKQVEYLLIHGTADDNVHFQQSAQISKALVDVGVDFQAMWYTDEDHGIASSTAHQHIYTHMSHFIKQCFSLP
Description: Inhibitors were incubated overnight in pH 2 or pH 8 solutions and then added directly to an enzyme assay solution at pH 8.0.
It is important to note that the x-axis in FIG. 3 refers to the concentration of the SPI, not the concentration of the released Xaa-boroPro.

male Sprague-Dawley rats = assay: Example 10: clinical signs and mortality after single oral administration in male rats; conditions: for Clinical Observation: one line per animal, wrapped cell 'Redness of ears' continues 'and paws';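 as to all read-outs here: test articles given by mouth, formulated in deionized Type I water as vehicle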
Zucker rats = assay: Toxicity (mortality) after oral dose in rats; type: in vivo
Diabetic Mice = assay: Toxicity (mortality) of Val-boroPro in diabetic mice; type: in vivo
serum DPP IV = serum DPP IV (Mus musculus, UniProt P28843); assay: In vivo inhibition of serum DPP IV in db/db mice after oral dose; conditions: Diabetic-control = 100.00
Chain of serum DPP IV (P28843 37-760 limits assumed): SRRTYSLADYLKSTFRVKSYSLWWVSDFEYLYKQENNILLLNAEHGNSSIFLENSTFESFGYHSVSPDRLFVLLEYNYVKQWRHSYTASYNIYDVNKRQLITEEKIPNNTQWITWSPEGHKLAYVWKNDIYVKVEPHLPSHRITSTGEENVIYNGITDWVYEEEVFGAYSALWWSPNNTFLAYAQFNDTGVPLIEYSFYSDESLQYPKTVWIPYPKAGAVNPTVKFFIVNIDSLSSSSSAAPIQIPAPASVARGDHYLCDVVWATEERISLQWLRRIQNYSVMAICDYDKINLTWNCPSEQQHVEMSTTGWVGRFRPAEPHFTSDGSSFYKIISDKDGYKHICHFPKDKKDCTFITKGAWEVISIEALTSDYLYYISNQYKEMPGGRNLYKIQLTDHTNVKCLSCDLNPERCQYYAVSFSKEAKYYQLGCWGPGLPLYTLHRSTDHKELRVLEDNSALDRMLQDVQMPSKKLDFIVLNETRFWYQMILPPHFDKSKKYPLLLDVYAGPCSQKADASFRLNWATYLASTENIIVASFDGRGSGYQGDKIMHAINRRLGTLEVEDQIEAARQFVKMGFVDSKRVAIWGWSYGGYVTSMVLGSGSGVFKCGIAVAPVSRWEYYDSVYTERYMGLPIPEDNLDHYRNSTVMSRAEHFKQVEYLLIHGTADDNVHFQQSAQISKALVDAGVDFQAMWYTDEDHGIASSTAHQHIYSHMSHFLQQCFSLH

[1] = pH 2, ten minutes, read-out: IC50 Values at Ten Minutes pH 2
[2] = pH 8, ten minutes, read-out: IC50 Values at Ten Minutes pH 8
[3] = pH 2, read-out: Tetrapeptide Prodrugs (IC50) pH 2
[4] = 2.5 mg/kg ALA-PRO boronic dose equivalents
[5] = 10.0 mg/kg ALA-PRO boronic dose equivalents

Molecule: CC(NC(=O)C(NC(=O)C1CCCN1C(=O)C(N)C1CCCCC1)C(C)(C)C)B(O)O (stereo not shown) [ChgProtBugboroAla]
IC50 (DPP IV; [1]): 6800 nM
IC50 (DPP IV; [2]): 8400 nM

Molecule: NCC(=O)N1CCCC1C(=O)N1CCCC1C(=O)N1CCCC1B(O)O (stereo not shown) [GlyProProboroPro]
IC50 (DPP IV; [3]): 9000 nM
IC50 (DPP IV; [1]): 8600 nM
IC50 (DPP IV; [2]): 20000 nM

Molecule: CNC(Cc1ccccc1)C(=O)N1CCCC1C(=O)NC(C)C(=O)N1CCCC1B(O)O (stereo not shown) [N—Me-PheProAlaboroPro, N-Me-Phe-PRO-ALA-PRO Boronic Acid]
IC50 (DPP IV; [1]): 2000 nM
IC50 (DPP IV; [2]): 2700 nM
Clinical Observation (male Sprague-Dawley rats; 0.5 mg/kg ALA-PRO boronic dose equivalents): None
Approximate Onset of Observation (Time post-dose) (male Sprague-Dawley rats; [4]): ~2 h
Clinical Observation (male Sprague-Dawley rats; [4]): Redness of ears and None (2×)
Approximate Onset of Observation (Time post-dose) (male Sprague-Dawley rats; [5]): ~4 h
Clinical Observation (male Sprague-Dawley rats; [5]): None (2×) and Redness of ears

Molecule: O=C(C1CCCN1)N1CCCC1B(O)O (stereo not shown) [Pro-boroPro, reference compound]
pH dependence of DPP IV inhibition (DPP IV; pre-incubated at low pH vs high pH (FIG. 3, FIG. 64, Table 1)): more effective as inhibitors of DPP IV when pre-incubated at low pH than at high pH

Molecule: O=C(C1CCCN1C(=O)C1CCCN1C(=O)C1CCCN1)N1CCCC1B(O)O (stereo not shown) [ProProProboroPro]
IC50 (DPP IV; [3]): 10000 nM
IC50 (DPP IV; [1]): 10000 nM

Molecule: NC(Cc1ccc(O)cc1)C(=O)N1CCCC1C(=O)NC(Cc1ccccc1)C(=O)N1CCCC1B(O)O (stereo not shown) [TyrProPheboroPro]
IC50 (DPP IV; IC50 Values at Ten Minutes pH 2, pH 2, ten minutes): 50 nM
IC50 (DPP IV; IC50 Values at Ten Minutes pH 8, pH 8, ten minutes): 60 nM

Molecule: CC(C)[C@H](N)C(=O)N1CCC[C@H]1B(O)O [Val-boroPro]
MORTALITY (Zucker rats; 0.035 mg/kg Oral, Zucker Lean, 4 animals dosed, project 002969): 1
MORTALITY (Zucker rats; 0.035 mg/kg Oral, Zucker Obese, 4 animals dosed, project 002969): 4
MORTALITY (Zucker rats; 0.35 mg/kg Oral, Zucker Lean, 4 animals dosed, project 002969): 4
MORTALITY (Zucker rats; 0.35 mg/kg Oral, Zucker Obese, 4 animals dosed, project 002969): 4
MORTALITY (Zucker rats; 1.75 mg/kg Oral, Zucker Lean, 4 animals dosed, project 002969): 2
MORTALITY (Zucker rats; 1.75 mg/kg Oral, Zucker Obese, 4 animals dosed, project 002969): 2
MORTALITY (Zucker rats; 5 mg/kg Oral, Zucker Lean, 3 animals dosed, project 002898): 3
MORTALITY (Zucker rats; 5 mg/kg Oral, Zucker Obese, 4 animals dosed, project 002898): 4
Mortality (rats killed) (Zucker rats; Zucker rats, dose of 0.035 mg/kg): four out of four
Toxicity to rats (Zucker rats; rats): quite toxic to rats
MORTALITY (Diabetic Mice; 0.035 mg/kg, Diabetic Mice (starved), 8 animals dosed, project 011050): 0
MORTALITY (Diabetic Mice; 0.035 mg/kg, Diabetic Mice, 7 animals dosed, project 010757): 0
MORTALITY (Diabetic Mice; 0.035 mg/kg, Diabetic Mice, 8 animals dosed, project 011050 group 3): 0
MORTALITY (Diabetic Mice; 0.35 mg/kg, Diabetic Mice, 7 animals dosed, project 010757): 0
Toxic effect in mice (Diabetic Mice; 3.5 mg/kg): no noticeable toxic effect
MORTALITY (Diabetic Mice; 3.5 mg/kg, Diabetic Mice, 7 animals dosed, project 010757): 0
Toxicity to mice (Diabetic Mice; mice): apparently not at all
In vivo inhibition of serum DPP IV (serum DPP IV; 0.0025 mg/kg, 1 hr Post Rx-Glucose): 94.52
In vivo inhibition of serum DPP IV (serum DPP IV; 0.0025 mg/kg, 4 hrs Post Rx-Glucose): 93.30
In vivo inhibition of serum DPP IV (serum DPP IV; 0.01 mg/kg, 1 hr Post Rx-Glucose): 59.36
In vivo inhibition of serum DPP IV (serum DPP IV; 0.01 mg/kg, 4 hrs Post Rx-Glucose): 58.85
In vivo inhibition of serum DPP IV (serum DPP IV; 0.025 mg/kg, 1 hr Post Rx-Glucose): 47.49
In vivo inhibition of serum DPP IV (serum DPP IV; 0.025 mg/kg, 4 hrs Post Rx-Glucose): 39.23

Molecule: ChgPipEtgboroPro
IC50 (DPP IV; [1]): 19 nM
IC50 (DPP IV; [2]): 14 nM

Results, then the molecule that gave them:

IC50 (DPP IV; [1]): 12 nM
IC50 (DPP IV; [2]): 14 nM
Molecule: CCC(NC(=O)C1CCCN1C(=O)C(N)C1CCCCC1)C(=O)N1CCCC1B(O)O (stereo not shown) [ChgProEtgboroPro]

IC50 (DPP IV; [1]): 13 nM
IC50 (DPP IV; [2]): 16 nM
Molecule: CC[C@H](NC(=O)[C@@H]1CSCN1C(=O)[C@@H](N)C1CCCCC1)C(=O)N1CCC[C@H]1B(O)O [ChgThz4EtgboroPro]

IC50 (DPP IV; [3]): 17 nM
IC50 (DPP IV; [1]): 17 nM
IC50 (DPP IV; pH 8, read-out: Tetrapeptide Prodrugs (IC50) pH 8): 46 nM
IC50 (DPP IV; [2]): 46 nM
Molecule: CC(C)C(NC(=O)C1CCCN1C(=O)CN)C(=O)N1CCCC1B(O)O (stereo not shown) [GlyProValboroPro]

IC50 (DPP IV; [1]): 6 nM
IC50 (DPP IV; [2]): 8 nM
Molecule: CC(NC(=O)C1CCCN1C(=O)C(N)Cc1ccccc1)C(=O)N1CCCC1B(O)O (stereo not shown) [PheProAlaboroPro, Phenylalanine-Proline-Alanine-Proline Boronic Acid]

IC50 (DPP IV; [1]): 15 nM
IC50 (DPP IV; [2]): 17 nM
Molecule: CC(NC(=O)C1CCCN1C(=O)C(N)Cc1ccc(O)cc1)C(=O)N1CCCC1B(O)O (stereo not shown) [TyrProAlaboroPro, Tyrosine-Proline-Alanine-Proline Boronic Acid]

IC50 (DPP IV; [1]): 14 nM
IC50 (DPP IV; [2]): 18 nM
Molecule: CC(NC(=O)C1CCCN1C(=O)C(N)C(C)(C)C)C(=O)N1CCCC1B(O)O (stereo not shown) [tBugProAlaboroPro]

IC50 (DPP IV; [1]): 15 nM
IC50 (DPP IV; [2]): 17 nM
Molecule: ChgDhpEtgboroPro
